Patent publication EP0433163A2, “Process for the preparation of imidazobenzodiazepines and their salts” (ROUSSEL-UCLAF, priority 1989, dated 1991)

Columns and labels:
[1] = biological target: récepteurs de benzodiazépine; test: Benzodiazepine receptor binding (FRB), method of GB 2 128 989; conditions: in vitro benzodiazepine receptor binding; type of value not stated; read-out: FRBnM
Excerpt: La recherche de la fixation aux récepteurs de benzodiazépine (FRB) est réalisée par le procédé décrit dans GB 2 128 989.

[2] = tested on: récepteurs de benzodiazépine; test: In vivo binding to benzodiazepine receptors, method of Goeders and Kuhar, Life Sciences (1985) 37 345
Excerpt: La mesure de la fixation in vivo aux récepteurs de benzodiazépine est réalisée selon le procédé décrit par Goeders N.E. and Kuhar M J, Life Sciences (1985) 37 345.

| Structure (SMILES) | IC50 [1] | Fixation in vivo DE50 mg/pk ip [2] |
| --- | --- | --- |
| CCOC(=O)c1ncn2c1CN(C)C(=O)c1c(F)c(F)c(F)c(F)c1-2 [EXEMPLE 1G, 5,6-dihydro-5-méthyl-6-oxo-7,8,9,10-tétrafluoro-4H-imidazo [1,5-a] [1,4] benzodiazépine-3-carboxylate d'éthyle] | 7.5 µM | 100 mg/pk |
| CN1Cc2c(C(=O)C3CC3)ncn2-c2cccc(C(F)(F)F)c2C1=O [EXEMPLE 3C, 5,6-dihydro-5-méthyl-6-oxo-7-trifluorométhyl-4H-imidazo [1,5-a] [1,4] benzodiazépine-3-yl-cyclopropylméthanone] | 0.0094 µM | 0,05 mg/pk |
| CN1Cc2c(C(=O)C3CC3)ncn2-c2cccc(F)c2C1=O [EXEMPLE 3D, 5,6-dihydro-7-fluoro-5-méthyl-6-oxo-4H-imidazo [1,5-a] [1,4] benzodiazépine-3-yl-cyclopropylméthanone] | 0.027 µM |  |
| CCOC(=O)c1ncn2c1CN(C)C(=O)c1cccc(F)c1-2 [EXEMPLE 1D, 5,6-dihydro-10-fluoro-5-méthyl-6-oxo-4H-imidazo [1,5-a] [1,4] benzodiazépine-3-carboxylate d'éthyle] | 0.41 µM | 21 mg/pk |
| CCOC(OCC)c1ncn2c1CN(C)C(=O)c1c(Cl)cccc1-2 [EXEMPLE 5, 7-chloro-3-diethoxyméthyl-5,6-dihydro-5-méthyl-4H-imidazo [1,5-a] [1,4] benzodiazépine-6(4H)-one] | 0.339 µM | 2,1 mg/pk |
| CN1Cc2c(C(=O)C3CC3)ncn2-c2cccc(Cl)c2C1=O [EXEMPLE 3B, 7-chloro-5,6-dihydro-5-méthyl-6-oxo-4H-imidazo [1,5-a] [1,4] benzodiazépine-3-yl-cyclopropylméthanone] | 0.0077 µM |  |
| O=C1NCc2c(C(=O)C3CC3)ncn2-c2ccccc21 [EXEMPLE 4, 5,6-dihydro-6-oxo-4H-imidazo [1,5-a] [1,4] benzodiazépine-3-yl-cyclopropylméthanone] | 0.582 µM |  |
| CCOC(=O)c1ncn2c1CN(C)C(=O)c1c(F)ccc(F)c1-2 [EXEMPLE 1E, 7,10-difluoro-5,6-dihydro-5-méthyl-6-oxo-4H-imidazo [1,5-a] [1,4] benzodiazépine-3-carboxylate d'éthyle] | 0.174 µM | 1,1 mg/pk |
| CCOC(=O)c1ncn2c1CN(C)C(=O)c1cccc(N)c1-2 [EXEMPLE 6, 5,6-dihydro-10-amino-5-méthyl-6-oxo-4H-imidazo [1,5-a] [1,4] benzodiazépine-3-carboxylate d'éthyle] | 0.966 µM |  |
